Values quoted from earlier work in patent US20120315265A1, “HYDROGEL-FORMING POLYMER, AND PREPARATION PROCESS AND USES THEREOF” (CHANG GUNG UNIVERSITY, priority 2011, published 2012).

Key:
[1] = in the anterior chamber
[2] = in vivo

For CC[C@@H]1C(=O)OC[C@@H]1Cc1cncn1C [pilocarpine], the “effective therapeutic dose for IOP reduction” value [1] is given as 10 to 33 µg/mL and the “duration of pupillary constriction” value [2] is given as “up to 8 hour”.
